Assay results from patent EP4596574A1, “GLP-1/GCG/GIP TRIPLE-RECEPTOR AGONIST AND USE THEREOF” (Sunshine Lake Pharma Co., Ltd., priority 2022, dated 2024).
Marks after values point to notes of the source that are not given here.

What was measured:
[1] = Glucose tolerance assessment in normal C57BL/6 mice (Example 5); type: in vivo; conditions: 3 nmol/kg s.c. single dose, 24 h after administration
In short: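 Normal C57BL/6 mice given a single dose, fasted 12 h starting 12 h post-dose, then challenged with 2 g/kg glucose i.p. Tail-vein glucose measured at baseline and 15, 30, 60, 90 min. AUC0~90min calculated from the glucose–time curve per dose group.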

[2] = target: T1, GCGR (Homo sapiens, UniProt P47871); assay: In vitro cell activity, cAMP production in HEK293 cells expressing GCGR; type: cell-based
T1 construct: expressed in transfected cells; host or cells: HEK293 (HEK293-GCGR)
In short: (§1)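 Cells were plated at 4×10^5 cells/mL, and detection reagents (cAMP-d2, anti-cAMP cryptate, 1:1) were incubated 1 h at room temperature in the dark or overnight at 4 °C.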

[3] = target: T2, GIPR (Homo sapiens, UniProt P48546); assay: In vitro cell activity, cAMP production in HEK293 cells expressing GIPR; type: cell-based
T2 construct: expressed in transfected cells; host or cells: HEK293 (HEK293-GIPR)
T2 sequence (P48546 22-466): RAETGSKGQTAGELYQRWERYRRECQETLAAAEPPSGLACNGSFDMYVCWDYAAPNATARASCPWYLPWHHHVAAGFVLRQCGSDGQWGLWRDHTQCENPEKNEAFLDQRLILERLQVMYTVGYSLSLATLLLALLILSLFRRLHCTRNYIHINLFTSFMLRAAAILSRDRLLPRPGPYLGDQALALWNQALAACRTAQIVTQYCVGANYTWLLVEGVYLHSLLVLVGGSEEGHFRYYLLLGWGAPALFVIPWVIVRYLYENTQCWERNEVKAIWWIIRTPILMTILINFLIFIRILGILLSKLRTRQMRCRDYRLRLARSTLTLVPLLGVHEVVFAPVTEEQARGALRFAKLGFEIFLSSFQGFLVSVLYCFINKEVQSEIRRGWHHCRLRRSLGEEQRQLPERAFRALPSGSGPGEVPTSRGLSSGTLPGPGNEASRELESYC
In short: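 cAMP accumulation is quantified by homogeneous TR-FRET (cAMP-d2 plus anti-cAMP cryptate) in GIPR-expressing HEK293 cells seeded from a 4×10^5 cells/mL suspension and treated with compound. The signal ratio is plotted against concentration and fitted to a four-parameter curve to give EC50.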

[4] = target: T3, GLP-1R (Homo sapiens, UniProt P43220); assay: In vitro cell activity, cAMP production in HEK293 cells expressing GLP-1R; type: cell-based
T3 construct: expressed in transfected cells; host or cells: HEK293 (HEK293-GLP-1R)
In short: as §1

[5] = Pharmacokinetic study in rats, single subcutaneous injection; conditions: male, Sprague Dawley, in vivo, sc, rat, 50 nmol/kg single subcutaneous injection, plasma
Description: The pharmacokinetic study of each polypeptide compound prepared in Example 1 was conducted using male Sprague Dawley rats. There were 3 male rats in each group. […] The dose was 50 nmol/kg, and a single subcutaneous injection was given (see Table 3 for specific peptide compounds). After administration, plasma was collected on the specified days and time points, and the concentration of each peptide compound in the plasma was detected by LC-MS/MS method. The pharmacokinetic parameters were obtained based on the concentration data, which were used to describe the pharmacokinetic properties of the peptide in rats after subcutaneous injection. Table 3: Summary of pharmacokinetic parameters of some triple-target peptides in rats

T3 sequence (P43220 24-463, species assumed): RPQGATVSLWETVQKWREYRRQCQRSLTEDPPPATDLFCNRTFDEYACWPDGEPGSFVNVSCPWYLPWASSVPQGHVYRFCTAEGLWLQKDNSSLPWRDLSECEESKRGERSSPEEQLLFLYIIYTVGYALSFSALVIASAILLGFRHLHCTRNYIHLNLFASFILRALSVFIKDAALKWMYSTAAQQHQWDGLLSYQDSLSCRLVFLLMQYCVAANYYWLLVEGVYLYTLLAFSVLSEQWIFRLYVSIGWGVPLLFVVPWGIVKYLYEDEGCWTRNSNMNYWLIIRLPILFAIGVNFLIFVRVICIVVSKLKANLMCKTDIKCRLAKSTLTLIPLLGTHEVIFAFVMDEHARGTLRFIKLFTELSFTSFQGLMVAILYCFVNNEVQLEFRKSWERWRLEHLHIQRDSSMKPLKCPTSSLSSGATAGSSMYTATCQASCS
T1 sequence (P47871 26-477, species assumed): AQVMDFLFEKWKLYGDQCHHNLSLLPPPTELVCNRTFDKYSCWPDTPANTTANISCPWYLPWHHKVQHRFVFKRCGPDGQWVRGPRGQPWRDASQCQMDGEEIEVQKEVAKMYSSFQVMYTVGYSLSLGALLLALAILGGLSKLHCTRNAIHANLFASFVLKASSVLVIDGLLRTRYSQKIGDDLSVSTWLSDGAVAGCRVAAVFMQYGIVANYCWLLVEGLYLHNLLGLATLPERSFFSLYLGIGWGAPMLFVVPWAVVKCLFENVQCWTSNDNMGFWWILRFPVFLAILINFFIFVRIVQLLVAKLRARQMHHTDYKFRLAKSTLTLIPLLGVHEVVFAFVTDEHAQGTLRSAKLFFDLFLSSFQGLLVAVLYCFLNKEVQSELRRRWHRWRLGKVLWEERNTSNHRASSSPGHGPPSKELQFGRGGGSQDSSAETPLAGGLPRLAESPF

SMILES: CC[C@H](C)[C@H](NC(=O)[C@H](Cc1ccccc1)NC(=O)[C@H](C)NC(=O)[C@H](CCCNC(=N)N)NC(=O)[C@H](CCC(N)=O)NC(=O)[C@H](CCCNC(=N)N)NC(=O)[C@H](CCCCNC(=O)COCCOCCNC(=O)CC[C@H](NC(=O)CCCCCCCCCCCCCCCCC(=O)O)C(=O)O)NC(=O)[C@H](CCC(=O)O)NC(=O)[C@H](CC(=O)O)NC(=O)[C@H](CC(C)C)NC(=O)[C@H](CC(C)C)NC(=O)[C@@H](NC(=O)[C@H](CO)NC(=O)[C@H](Cc1ccc(O)cc1)NC(=O)[C@H](CC(=O)O)NC(=O)[C@H](CO)NC(=O)[C@@H](NC(=O)[C@](C)(Cc1ccccc1F)NC(=O)[C@@H](NC(=O)CNC(=O)[C@H](Cc1c[nH]cn1)NC(=O)C(C)(C)NC(=O)[C@@H](N)Cc1ccc(O)cc1)[C@@H](C)O)[C@@H](C)O)[C@@H](C)CC)C(=O)N[C@@H](CCC(=O)O)C(=O)N[C@@H](Cc1ccc(O)cc1)C(=O)N[C@@H](CC(C)C)C(=O)N[C@@H](CC(C)C)C(=O)N[C@@H](C)C(=O)NCC(=O)NCC(=O)N1CCC[C@H]1C(=O)N[C@@H](CO)C(=O)N[C@@H](CO)C(=O)NCC(=O)N[C@@H](C)C(=O)N1CCC[C@H]1C(=O)N1CCC[C@H]1C(=O)N1CCC[C@H]1C(=O)N[C@@H](CO)C(=O)O [HEC-PT119]
- Blood glucose level (mM) 15 min ([1]; 15 min after 2 g/kg glucose i.p.): 14.0 ± 2.2 mM
- Blood glucose level (mM) 30 min ([1]; 30 min after 2 g/kg glucose i.p.): 10.8 ± 1.8 mM
- Blood glucose level (mM) 60 min ([1]; 60 min after 2 g/kg glucose i.p.): 7.8 ± 0.7 mM
- Blood glucose level (mM) 90 min ([1]; 90 min after 2 g/kg glucose i.p.): 6.7 ± 0.7 mM
- Blood glucose level (mM) 0 min ([1]; basal before 2 g/kg glucose i.p.): 4.1 ± 0.4 mM
- AUC0-90 min ([1]; blood glucose AUC, 2 g/kg glucose i.p.): 817.4±95.1^a
- EC50 [2]: 0.266 nM
- EC50 [3]: 0.0484 nM
- EC50 [4]: 0.189 nM
- AUC(0-inf) [5]: 43800 ± 10700 ng·h/mL
- AUC(0-t) [5]: 43500 ± 10700 ng·h/mL
- Cmax [5]: 974 ± 248 ng/mL
- half-life ([5]; read-out: T1/2 (converted)): 16 ± 1.6 h
- Tmax ([5]; read-out: Tmax): 19 ± 9.2 h
